Columns and labels:
Format in all cases: cell-based
E. coli DH5α = test: Antibacterial activity: MIC and growth curve against E. coli DH5α in 96-well plate; conditions: minimal inhibitory concentration against E. coli DH5α; 96-well plate, 5×10^5 CFU/mL, 37° C., judged after 8 h
Summary of the method: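 Log-phase bacteria (OD600 ~0.5) resuspended in LB at 5×10^5 CFU/mL, exposed to recombinant protein at 50, 25, 12.5 μg/mL final in triplicate, 37 °C shaking at 175 rpm. OD600 read every 30 min; MIC is lowest concentration showing no growth.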

E. coli BL21 = test: MIC against Gram-negative bacteria: E. coli BL21; conditions: for MIC E. coli BL21 / MIC: 10 h cultivation at 37° C.; for MIC E. coli BL21: two-fold serial dilution
Summary of the method: (§1)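 Bacteria grown in LB at 37° C to McFarland 0.5, resuspended and seeded at 5×10^5 CFU/mL in 96-well plates. Purified human EGF-domain proteins two-fold serially diluted, triplicate wells; cultured at 37° C, shaking 175 rpm. MIC = lowest protein concentration with no growth.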

Pseudomonas aeruginosa = test: MIC against Gram-negative bacteria: Pseudomonas aeruginosa; conditions: for MIC P. aeruginosa / MIC: 10 h cultivation at 37° C.; for MIC P. aeruginosa: two-fold serial dilution; for MIC: P. aeruginosa
Summary of the method: as §1

Klebsiella pneumonia = test: MIC against Gram-negative bacteria: Klebsiella pneumonia; conditions: for MIC K. pneumonia / MIC: 10 h cultivation at 37° C.; for MIC K. pneumonia: two-fold serial dilution; for MIC: K. pneumonia
Summary of the method: as §1

Enterobacter cloacae = test: MIC against Gram-negative bacteria: Enterobacter cloacae; conditions: for MIC E. cloacae / MIC: 10 h cultivation at 37° C.; for MIC E. cloacae: two-fold serial dilution; for MIC: E. cloacae
Summary of the method: as §1

Aeromonas hydrophila = test: MIC against Gram-negative bacteria: Aeromonas hydrophila; conditions: for MIC A. hydrophila / MIC: 10 h cultivation at 37° C.; for MIC A. hydrophila: two-fold serial dilution; for MIC: A. hydrophila
Summary of the method: as §1

Citrobacter diversus = test: MIC against Gram-negative bacteria: Citrobacter diversus; conditions: for MIC C. diversus / MIC: 10 h cultivation at 37° C.; for MIC C. diversus: two-fold serial dilution; for MIC: C. diversus
Summary of the method: as §1

Moraxella catarrhalis = test: MIC against Gram-negative bacteria: Moraxella catarrhalis; conditions: for MIC M. catarrhalis / MIC: 10 h cultivation at 37° C.; for MIC M. catarrhalis: two-fold serial dilution; for MIC: M. catarrhalis
Summary of the method: as §1

Proteus mirabilis = test: MIC against Gram-negative bacteria: Proteus mirabilis; conditions: for MIC P. mirabilis / MIC: 10 h cultivation at 37° C.; for MIC P. mirabilis: two-fold serial dilution; for MIC: P. mirabilis
Summary of the method: as §1

Proteus vulgaris = test: MIC against Gram-negative bacteria: Proteus vulgaris; conditions: for MIC P. vulgaris / MIC: 10 h cultivation at 37° C.; for MIC P. vulgaris: two-fold serial dilution; for MIC: P. vulgaris
Summary of the method: as §1

Serratia marcescens = test: MIC against Gram-negative bacteria: Serratia marcescens; conditions: for MIC S. marcescens / MIC: 10 h cultivation at 37° C.; for MIC S. marcescens: two-fold serial dilution; for MIC: S. marcescens
Summary of the method: as §1

[1] = E. coli BL21, 96-well plate, 5×10^5 CFU/mL, 37° C., 10 h
[2] = Pseudomonas aeruginosa, 96-well plate, 5×10^5 CFU/mL, 37° C., 10 h
[3] = Klebsiella pneumonia, 96-well plate, 5×10^5 CFU/mL, 37° C., 10 h
[4] = Enterobacter cloacae, 96-well plate, 5×10^5 CFU/mL, 37° C., 10 h
[5] = Aeromonas hydrophila, 96-well plate, 5×10^5 CFU/mL, 37° C., 10 h
[6] = Citrobacter diversus, 96-well plate, 5×10^5 CFU/mL, 37° C., 10 h
[7] = Moraxella catarrhalis, 96-well plate, 5×10^5 CFU/mL, 37° C., 10 h
[8] = Proteus mirabilis, 96-well plate, 5×10^5 CFU/mL, 37° C., 10 h
[9] = Proteus vulgaris, 96-well plate, 5×10^5 CFU/mL, 37° C., 10 h
[10] = Serratia marcescens, 96-well plate, 5×10^5 CFU/mL, 37° C., 10 h
[11] = 96-well plate, 5×10^5 CFU/mL, 37° C., 10 h

Substance: PRT1268 (CAVNNGGCDRTCKDTSTGVHCSCPVGFTLQLDGKTC; listed as Homo sapiens)
- MIC (E. coli DH5α): 50 µg/mL
- MIC against E. coli BL21 (E. coli BL21; [1]): 12.5 µg/mL
- MIC against P. aeruginosa (Pseudomonas aeruginosa; [2]): 50 µg/mL
- MIC against K. pneumonia (Klebsiella pneumonia; [3]): 12.5 µg/mL
- MIC against E. cloacae (Enterobacter cloacae; [4]): 25 µg/mL
- MIC against A. hydrophila (Aeromonas hydrophila; [5]): 50 µg/mL
- MIC against C. diversus (Citrobacter diversus; [6]): 12.5 µg/mL
- MIC against M. catarrhalis (Moraxella catarrhalis; [7]): 50 µg/mL
- MIC against P. mirabilis (Proteus mirabilis; [8]): 12.5 µg/mL
- MIC against P. vulgaris (Proteus vulgaris; [9]): 25 µg/mL
- MIC against S. marcescens (Serratia marcescens; [10]): 50 µg/mL

Substance: PRT1149 (APSVCQQDVCHNGGTCHAIFLSSGIVSFQCDCPLHFTGRFCE; listed as Homo sapiens)
- MIC (E. coli DH5α): 25 µg/mL
- MIC E. coli BL21 (E. coli BL21; 5×10^5 CFU/mL): 25 µg/mL
- MIC P. aeruginosa (Pseudomonas aeruginosa; 5×10^5 CFU/mL): 50 µg/mL
- MIC K. pneumonia (Klebsiella pneumonia; 5×10^5 CFU/mL): 25 µg/mL
- MIC E. cloacae (Enterobacter cloacae; 5×10^5 CFU/mL): 12.5 µg/mL
- MIC A. hydrophila (Aeromonas hydrophila; 5×10^5 CFU/mL): 50 µg/mL
- MIC C. diversus (Citrobacter diversus; 5×10^5 CFU/mL): 12.5 µg/mL
- MIC M. catarrhalis (Moraxella catarrhalis; 5×10^5 CFU/mL): 50 µg/mL
- MIC P. mirabilis (Proteus mirabilis; 5×10^5 CFU/mL): 12.5 µg/mL
- MIC P. vulgaris (Proteus vulgaris; 5×10^5 CFU/mL): 25 µg/mL
- MIC S. marcescens (Serratia marcescens; 5×10^5 CFU/mL): 50 µg/mL

Substance: PRT84 (EAGRCVPGVCRNGGTCTDAPNGGFRCQCPAGGAFEGPRCE; listed as Homo sapiens)
- MIC (E. coli DH5α): 12.5 µg/mL
- MIC (μg/mL) E. coli BL21 (E. coli BL21; [1]): 25 µg/mL
- MIC (μg/mL) P. aeruginosa (Pseudomonas aeruginosa; [2]): 12.5 µg/mL
- MIC (μg/mL) K. pneumonia (Klebsiella pneumonia; [3]): 25 µg/mL
- MIC (μg/mL) E. cloacae (Enterobacter cloacae; [4]): 12.5 µg/mL
- MIC (μg/mL) A. hydrophila (Aeromonas hydrophila; [5]): 25 µg/mL
- MIC (μg/mL) C. diversus (Citrobacter diversus; [6]): 12.5 µg/mL
- MIC (μg/mL) M. catarrhalis (Moraxella catarrhalis; [7]): 25 µg/mL
- MIC (μg/mL) P. mirabilis (Proteus mirabilis; [8]): 12.5 µg/mL
- MIC (μg/mL) P. vulgaris (Proteus vulgaris; [9]): 25 µg/mL
- MIC (μg/mL) S. marcescens (Serratia marcescens; [10]): 12.5 µg/mL

Substance: PRT1140 (DVKDCLFLSCQDYGDCEDMVNNFRCICRPGFSGSLCE; listed as Homo sapiens)
- MIC (E. coli DH5α): 25 µg/mL
- MIC E. coli BL21 (E. coli BL21; 5×10^5 CFU/mL): 50 µg/mL
- MIC P. aeruginosa (Pseudomonas aeruginosa; 5×10^5 CFU/mL): 12.5 µg/mL
- MIC K. pneumonia (Klebsiella pneumonia; 5×10^5 CFU/mL): 50 µg/mL
- MIC E. cloacae (Enterobacter cloacae; 5×10^5 CFU/mL): 12.5 µg/mL
- MIC A. hydrophila (Aeromonas hydrophila; 5×10^5 CFU/mL): 50 µg/mL
- MIC C. diversus (Citrobacter diversus; 5×10^5 CFU/mL): 12.5 µg/mL
- MIC M. catarrhalis (Moraxella catarrhalis; 5×10^5 CFU/mL): 50 µg/mL
- MIC P. mirabilis (Proteus mirabilis; 5×10^5 CFU/mL): 12.5 µg/mL
- MIC P. vulgaris (Proteus vulgaris; 5×10^5 CFU/mL): 50 µg/mL
- MIC S. marcescens (Serratia marcescens; 5×10^5 CFU/mL): 100 µg/mL

Substance: PRT992 (LEDMCLSQPCHGDAQCSTNPLTGSTLCLCQPGYSGPTCH; listed as Homo sapiens)
- MIC (E. coli DH5α): 12.5 µg/mL
- MIC (E. coli BL21; E. coli BL21): 12.5 µg/mL
- MIC (Pseudomonas aeruginosa): 12.5 µg/mL
- MIC (Klebsiella pneumonia): 12.5 µg/mL
- MIC (Enterobacter cloacae): 25 µg/mL
- MIC (Aeromonas hydrophila): 25 µg/mL
- MIC (Citrobacter diversus): 25 µg/mL
- MIC (Moraxella catarrhalis): 25 µg/mL
- MIC (Proteus mirabilis): 25 µg/mL
- MIC (Proteus vulgaris): 12.5 µg/mL
- MIC (Serratia marcescens): 25 µg/mL

Substance: PRT545 (CNCSGPGIQELTDPTCDTDSGQCKCRPNVTGRRCDTCSPGFHGYPRCRP; listed as Homo sapiens)
- MIC (E. coli DH5α): 12.5 µg/mL
- MIC against E. coli BL21 (E. coli BL21; [11]): 12.5 µg/mL
- MIC against P. aeruginosa (Pseudomonas aeruginosa; [11]): 12.5 µg/mL
- MIC against K. pneumonia (Klebsiella pneumonia; [11]): 25 µg/mL
- MIC against E. cloacae (Enterobacter cloacae; [11]): 12.5 µg/mL
- MIC against A. hydrophila (Aeromonas hydrophila; [11]): 25 µg/mL
- MIC against C. diversus (Citrobacter diversus; [11]): 12.5 µg/mL
- MIC against M. catarrhalis (Moraxella catarrhalis; [11]): 12.5 µg/mL
- MIC against P. mirabilis (Proteus mirabilis; [11]): 12.5 µg/mL
- MIC against P. vulgaris (Proteus vulgaris; [11]): 12.5 µg/mL
- MIC against S. marcescens (Serratia marcescens; [11]): 50 µg/mL

Substance: PRT896 (EVNECNSNPCVHGACRDSLNGYKCDCDPGWSGTNCD; listed as Homo sapiens)
- MIC (E. coli DH5α): 25 µg/mL
- MIC (E. coli BL21; E. coli BL21): 50 µg/mL
- MIC (Pseudomonas aeruginosa): 25 µg/mL
- MIC (Klebsiella pneumonia): 12.5 µg/mL
- MIC (Enterobacter cloacae): 50 µg/mL
- MIC (Aeromonas hydrophila): 12.5 µg/mL
- MIC (Citrobacter diversus): 50 µg/mL
- MIC (Moraxella catarrhalis): 12.5 µg/mL
- MIC (Proteus mirabilis): 25 µg/mL
- MIC (Proteus vulgaris): 50 µg/mL
- MIC (Serratia marcescens): 12.5 µg/mL
